How the values were obtained:
CIB1 [1] = target: T1, CIB1 (Homo sapiens, UniProt Q99828)
Text: (§1) Binding of the 56 purchased compounds was experimentally assessed in a time-resolved fluorescence energy transfer (TR-FRET) assay (see Fig. 3A and Supplementary data 1). Briefly, it serves as a displacement assay using an AlexaFluor-labeled cyclic CIB1-binding peptide and a Europium (Eu)-labeled Streptavidin donor for attachment to the AviTag biotinylated CIB1 protein (described previously in Puhl et al. and Haberman et al.[47],[62]).
(§2) A CIB1 TR-FRET assay uses an AlexaFluor-labeled cyclic CIB1-binding peptide and a Europium (Eu)-labeled Streptavidin donor for attachment to the AviTag biotinylated CIB1 protein. […] Compounds were dispensed into 384-well plates using a Mosquito HTS nanoliter instrument (TTP LABTech) as 3-fold serial dilutions (100x in DMSO, 0.1 μL) for final concentrations ranging from 100 μM to 0.5 nM. Biotinylated CIB1 was diluted to a final concentration of 3 nM in assay buffer (20 mM) TRIS pH 7.5, 150 mM NaCl, 1 mM CaCl, 1 mM CHAPS, and 1 mM DTT (added fresh each time), and 5 μL of diluted protein was added to the wells of the assay plate using a Multidrop Combi Reagent Dispenser (Thermo Scientific) and incubated at room temperature for 20 min. 5 μL detection solution containing 2 nM Lance Eu-Streptavidin (Perkin Elmer) and 30 nM Alexa647-CIB1-phage peptide diluted in assay buffer was added to the wells and incubated 30–60 min at room temperature protected from light. TR-FRET signals were measured using an Envision Multilabel Plate Reader (PerkinElmer; Eu excitation 320 nm, Eu emission 615 nm, Alexa dye emission 665 nm). […] Inhibition curves were analyzed using a four-parameter non-linear curve fit using ScreenAble software, and the mean and standard deviation were calculated. Publication curves were averaged and fit with a four-parameter non-liner curve fit using GraphPad Prism.

CIB1 [2] = target: T1, CIB1; test: biochemical
Text: as §1, §2

T1 sequence (Q99828 whole entry): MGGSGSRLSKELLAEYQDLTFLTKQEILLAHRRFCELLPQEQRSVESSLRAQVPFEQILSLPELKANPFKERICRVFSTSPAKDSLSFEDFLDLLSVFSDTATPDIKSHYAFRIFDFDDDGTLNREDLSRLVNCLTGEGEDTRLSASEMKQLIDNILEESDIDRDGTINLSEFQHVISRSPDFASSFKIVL

Row | Structure (SMILES) | Hill slope (CIB1 [1]) | IC50 (CIB1 [2])
1 | COc1cccc(OCCCn2cc(C=C3C(=O)NC(=O)N(Cc4ccco4)C3=O)c3ccccc32)c1 [UNC10245380A, COc1cccc(OCCCn2cc(C=C3C(=O)NC(=O)N(Cc4ccco4)C3=O)c3ccccc23)c1] | 1.5–2.5 | 
2 | O=C(NCc1ccc2c(c1)OCO2)C1CCN(S(=O)(=O)c2cccc3nsnc23)CC1 [UNC10245381A, O=C(NCc1ccc2OCOc2c1)C1CCN(CC1)S(=O)(=O)c1cccc2nsnc12] |  | 84 µM
3 | CC(c1nnc(SCC(=O)Nc2ccc(Oc3ccccc3)cc2)n1C)N1C(=O)COc2ccccc21 (centres unmarked) [UNC10245386A, CC(N1C(=O)COc2ccccc12)c1nnc(SCC(=O)Nc2ccc(Oc3ccccc3)cc2)n1C] |  | 33 µM
4 | CC(c1cc(-c2ccccc2)[nH]n1)N(C)C(=O)C1CCN(c2cccc3c2C(=O)N(Cc2cccs2)C3=O)CC1 (centres unmarked) [UNC10245397A, CC(N(C)C(=O)C1CCN(CC1)c1cccc2C(=O)N(Cc3cccs3)C(=O)c12)c1cc([nH]n1)-c1ccccc1] |  | 24 µM
5 | O=C(Nc1cccc2ncccc12)c1cccc(NS(=O)(=O)c2ccc3c(c2)OCCCO3)c1 [UNC10245399A, O=C(Nc1cccc2ncccc12)c1cccc(NS(=O)(=O)c2ccc3OCCCOc3c2)c1] |  | 59 µM
6 | Cc1ccc(C)c(S(=O)(=O)N2CCN(C(=O)CSc3nnc(-c4ccc5c(c4)OCO5)n3-c3ccccc3)CC2)c1 [UNC10245404A, Cc1ccc(C)c(c1)S(=O)(=O)N1CCN(CC1)C(=O)CSc1nnc(-c2ccc3OCOc3c2)n1-c1ccccc1] |  | 14 µM
7 | Cc1noc(C)c1COc1cccc(C(=O)Nc2cccc(S(=O)(=O)Nc3cccc(C(F)(F)F)c3)c2)c1 [UNC10245406A, Cc1noc(C)c1COc1cccc(c1)C(=O)Nc1cccc(c1)S(=O)(=O)Nc1cccc(c1)C(F)(F)F] |  | 39 µM
8 | COc1cccc(C(=O)N(CC(=O)Nc2ccc(N3CCN(C(=O)c4ccc(C)cc4)CC3)cc2)Cc2ccc(F)cc2)c1 [UNC10245410A, COc1cccc(c1)C(=O)N(CC(=O)Nc1ccc(cc1)N1CCN(CC1)C(=O)c1ccc(C)cc1)Cc1ccc(F)cc1] |  | 11 µM
9 | CN(Cc1ccco1)C(=O)c1ccc(COc2ccc3c(c2)C(c2cccc(F)c2)N(C(=O)C2CC2)CC3)o1 (centres unmarked) [UNC10245413A, CN(Cc1ccco1)C(=O)c1ccc(COc2ccc3CCN(C(c4cccc(F)c4)c3c2)C(=O)C2CC2)o1] |  | 48 µM
10 | CCOC(=O)c1cc(-c2ccc(N3CCN(C(=O)COc4ccccc4)CC3)cc2)n(-c2ccccc2OC)n1 [UNC10245416A, CCOC(=O)c1cc(-c2ccc(cc2)N2CCN(CC2)C(=O)COc2ccccc2)n(n1)-c1ccccc1OC] |  | 12 µM
11 | COc1cccc(CNC(=O)C2CCN(C(=O)[C@@H](Cc3ccccc3)NC(=O)COc3ccccc3)CC2)c1 [UNC10245418A, COc1cccc(CNC(=O)C2CCN(CC2)C(=O)[C@@H](Cc2ccccc2)NC(=O)COc2ccccc2)c1] |  | 93 µM
12 | COc1ccccc1N1CCN(C(=O)CCCc2nnc3n(CC(C)C)c(=O)c4sccc4n23)CC1 [UNC10245420A, COc1ccccc1N1CCN(CC1)C(=O)CCCc1nnc2n(CC(C)C)c(=O)c3sccc3n12] |  | 87 µM
13 | CCOc1ccccc1NC(=O)Nc1cccc(OCc2cc(=O)n3ccccc3n2)c1 [UNC10245432A, CCOc1ccccc1NC(=O)Nc1cccc(OCc2cc(=O)n3ccccc3n2)c1] |  | 43 µM
14 | Cc1cc(NC(=O)CSc2nc3ccccc3c(=O)n2CC2CCC(C(=O)NCc3ccccc3Cl)CC2)n[nH]1 (centres unmarked) [UNC10245433A, Cc1cc(NC(=O)CSc2nc3ccccc3c(=O)n2CC2CCC(CC2)C(=O)NCc2ccccc2Cl)n[nH]1] |  | 8.8 µM
15 | CC1Cc2ccccc2N1C(=O)CC1CCN(S(=O)(=O)c2ccc3c(c2)oc(=O)n3C)CC1 (centres unmarked) [UNC10245457A, CC1Cc2ccccc2N1C(=O)CC1CCN(CC1)S(=O)(=O)c1ccc2n(C)c(=O)oc2c1] |  | 44 µM
16 | COc1ccccc1OCCC1CCN(C(=O)C2CCN(S(=O)(=O)c3cccc4nonc34)CC2)C1 (centres unmarked) [UNC10245474A, COc1ccccc1OCCC1CCN(C1)C(=O)C1CCN(CC1)S(=O)(=O)c1cccc2nonc12] |  | 75 µM
17 | COc1ccccc1OCCCn1cc(C=C2C(=O)NC(=O)N(Cc3ccco3)C2=O)c2ccccc21 [UNC10245533, COc1ccccc1OCCCn1cc(C=C2C(=O)NC(=O)N(Cc3ccco3)C2=O)c2ccccc12] |  | 9.8 µM
18 | O=C1NC(=O)N(Cc2ccco2)C(=O)C1=Cc1cn(CCCOc2ccccc2)c2ccccc12 [UNC10245534, O=C1NC(=O)C(=Cc2cn(CCCOc3ccccc3)c3ccccc23)C(=O)N1Cc1ccco1] |  | 24 µM
19 | Cc1cccc(OCCCn2cc(C=C3C(=O)NC(=O)N(Cc4ccco4)C3=O)c3ccccc32)c1 [UNC10245535, Cc1cccc(OCCCn2cc(C=C3C(=O)NC(=O)N(Cc4ccco4)C3=O)c3ccccc23)c1] |  | 6.1 µM
20 | O=C1NC(=O)N(Cc2ccco2)C(=O)C1=Cc1cn(CCCOc2ccccc2Cl)c2ccccc12 [UNC10245536, Clc1ccccc1OCCCn1cc(C=C2C(=O)NC(=O)N(Cc3ccco3)C2=O)c2ccccc12] |  | 12 µM
21 | COc1ccccc1OCCn1cc(C=C2C(=O)NC(=O)N(Cc3ccco3)C2=O)c2ccccc21 [UNC10245537, COc1ccccc1OCCn1cc(C=C2C(=O)NC(=O)N(Cc3ccco3)C2=O)c2ccccc12] |  | 22 µM
22 | COc1ccc(OCCn2cc(C=C3C(=O)NC(=O)N(Cc4ccco4)C3=O)c3ccccc32)cc1 [UNC10245538, COc1ccc(OCCn2cc(C=C3C(=O)NC(=O)N(Cc4ccco4)C3=O)c3ccccc23)cc1] |  | 19 µM
23 | COc1ccc(OCCCn2cc(C=C3C(=O)NC(=O)N(Cc4ccco4)C3=O)c3ccccc32)cc1 [UNC10245539, COc1ccc(OCCCn2cc(C=C3C(=O)NC(=O)N(Cc4ccco4)C3=O)c3ccccc23)cc1] |  | 18 µM
24 | Cc1cc(OCCCn2cc(C=C3C(=O)NC(=O)N(Cc4ccco4)C3=O)c3ccccc32)cc(C)c1Cl [UNC10245540, Cc1cc(OCCCn2cc(C=C3C(=O)NC(=O)N(Cc4ccco4)C3=O)c3ccccc23)cc(C)c1Cl] |  | 23 µM
25 | Cc1cc(C)cc(OCCCn2cc(C=C3C(=O)NC(=O)N(Cc4ccco4)C3=O)c3ccccc32)c1 [UNC10245541, Cc1cc(C)cc(OCCCn2cc(C=C3C(=O)NC(=O)N(Cc4ccco4)C3=O)c3ccccc23)c1] |  | 4.3 µM
26 | COc1cccc(OCCn2cc(C=C3C(=O)NC(=O)N(Cc4ccco4)C3=O)c3ccccc32)c1 [UNC10245542, COc1cccc(OCCn2cc(C=C3C(=O)NC(=O)N(Cc4ccco4)C3=O)c3ccccc23)c1] |  | 50 µM

Reference: PMC11219766 (Nature Communications, 2024)
